In PubChem BioAssay (NCI) one finds GI50 and TGI data, which are given here for nine compounds.

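Tested at 5 concentrations; 48 h exposure; 96-well plates; endpoints linearly interpolated, else capped at highest concentration. Here, GI50 denotes the concentration required for 50% inhibition of growth. The concentration for full growth arrest is given as TGI.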

Among the test systems are BT-549 breast; CAKI-1 renal; M14 melanoma; MCF7 breast; MOLT-4 leukemia; NCI-H226 lung; PC-3 prostate; RPMI-8226 leukemia; SF-295 CNS; TK-10 renal.
What all share (assay): inhibition of tumour cell growth, NCI panel, 48 h

Regarding `Nc1c(C(=O)c2ccc(-c3cccnc3)cc2)cnn1-c1ccc(F)cc1`, the GI50 in the experiment with BT-549 breast was greater than 25 µM; in the experiment with CAKI-1 renal, greater than 25 µM; in the experiment on M14 melanoma, greater than 25 µM; in the experiment with MCF7 breast it was greater than 25 µM; with MOLT-4 leukemia it was greater than 25 µM; with NCI-H226 lung, greater than 16.2 µM. The GI50 is greater than 25 µM with PC-3 prostate, greater than 17.5 µM in the experiment on RPMI-8226 leukemia, greater than 25 µM in the experiment with SF-295 CNS and greater than 19.3 µM in the experiment on TK-10 renal. For the same compound, the TGI in the experiment with BT-549 breast, in the experiment with CAKI-1 renal, with M14 melanoma, in the experiment with MCF7 breast, in the experiment on MOLT-4 leukemia and in the experiment on NCI-H226 lung was greater than 25 µM throughout. The TGI with PC-3 prostate, in the experiment with RPMI-8226 leukemia, with SF-295 CNS and in the experiment on TK-10 renal was greater than 25 µM throughout.

Regarding `C[C@]12CC[C@@H]3c4cc(OC(F)F)c(O)cc4CC[C@H]3[C@@H]1CC[C@@H]2OS(N)(=O)=O`, the GI50 was 2.8 µM with BT-549 breast; 0.548 µM in the experiment on CAKI-1 renal; 0.511 µM in the experiment with M14 melanoma; 0.566 µM in the experiment with MCF7 breast; 0.598 µM in the experiment on MOLT-4 leukemia; 6.64 µM in the experiment with NCI-H226 lung. For the same compound, the GI50 in the experiment on PC-3 prostate was 0.729 µM; in the experiment with RPMI-8226 leukemia, 0.568 µM; in the experiment on SF-295 CNS it was 0.33 µM; with TK-10 renal, 14.6 µM. Besides, the TGI is 45.3 µM in the experiment with BT-549 breast; greater than 70.2 µM with CAKI-1 renal; 25.9 µM with M14 melanoma; 47.1 µM with MCF7 breast; greater than 100 µM in the experiment with MOLT-4 leukemia; 60.5 µM in the experiment with NCI-H226 lung. The TGI was 97.6 µM in the experiment with PC-3 prostate, 46.9 µM in the experiment with RPMI-8226 leukemia, 3.02 µM in the experiment with SF-295 CNS and greater than 92.5 µM with TK-10 renal.

In the case of `Nc1nc2c(ncn2C2CCC(CO)O2)c(=O)n1C(=O)c1ccccc1` (stereo not drawn), the TGI in the experiment on BT-549 breast, in the experiment on CAKI-1 renal, with M14 melanoma, in the experiment on MCF7 breast, in the experiment with MOLT-4 leukemia and in the experiment on NCI-H226 lung was greater than 100 µM each time. Also, the TGI in the experiment on PC-3 prostate, in the experiment with RPMI-8226 leukemia, with SF-295 CNS and with TK-10 renal was greater than 100 µM in each case.

Regarding `CC(C)(C)N1CCC1CN` (stereo not drawn), the GI50 in the experiment on BT-549 breast, in the experiment on CAKI-1 renal, in the experiment on M14 melanoma, with MCF7 breast, in the experiment with MOLT-4 leukemia and in the experiment with NCI-H226 lung was greater than 100 µM throughout. Moreover, the GI50 in the experiment with PC-3 prostate, in the experiment with RPMI-8226 leukemia, in the experiment on SF-295 CNS and in the experiment with TK-10 renal was greater than 100 µM in each case. Further, the TGI in the experiment with BT-549 breast, with CAKI-1 renal, in the experiment with M14 melanoma, in the experiment on MCF7 breast, in the experiment on MOLT-4 leukemia and in the experiment on NCI-H226 lung was greater than 100 µM in each case. For the same compound, the TGI with PC-3 prostate, in the experiment with RPMI-8226 leukemia, in the experiment with SF-295 CNS and with TK-10 renal was greater than 100 µM throughout.

`O=C1C(Cl)=C(Sc2nnc3c4ccccc4c4ccccc4c3n2)C(=O)c2ccccc21`: the TGI worked out at 32.2 µM with BT-549 breast; 31.9 µM with CAKI-1 renal; 35 µM in the experiment with M14 melanoma; 28.2 µM with MCF7 breast; 34.4 µM in the experiment on MOLT-4 leukemia; 40.9 µM in the experiment on NCI-H226 lung. In addition, the TGI in the experiment on PC-3 prostate was 46.4 µM; with RPMI-8226 leukemia, 39.1 µM; with SF-295 CNS it was 23.3 µM; in the experiment with TK-10 renal, 37.4 µM.

As to `COc1cc2nccc(Oc3ccc(NC(=O)NC4CC4)c(Cl)c3)c2cc1C(N)=O`, the GI50 in the experiment with BT-549 breast was 5.17 µM; in the experiment on CAKI-1 renal, 23.9 µM; in the experiment with M14 melanoma, 51 µM; with MCF7 breast, 36.2 µM; with MOLT-4 leukemia, 16.7 µM; with NCI-H226 lung, 1.1 µM. Besides, the GI50 was 42.5 µM with PC-3 prostate, 22.4 µM in the experiment on RPMI-8226 leukemia, 23.4 µM in the experiment with SF-295 CNS and 14.5 µM in the experiment on TK-10 renal. The TGI is 27.2 µM in the experiment on BT-549 breast; greater than 64.2 µM in the experiment on CAKI-1 renal; greater than 100 µM in the experiment on M14 melanoma; greater than 100 µM in the experiment on MCF7 breast; greater than 100 µM in the experiment with MOLT-4 leukemia; greater than 43.4 µM in the experiment on NCI-H226 lung. In addition, the TGI with PC-3 prostate was greater than 100 µM; in the experiment with RPMI-8226 leukemia, greater than 100 µM; with SF-295 CNS, greater than 85.7 µM; in the experiment on TK-10 renal, greater than 78.5 µM.

Consider `COc1ccc2sc3cccc(NCCN(C)C)c3c(=O)c2c1`, for which the GI50 is 5.4 µM in the experiment on BT-549 breast; 3.72 µM in the experiment on CAKI-1 renal; 2 µM in the experiment on M14 melanoma; 1.76 µM in the experiment on MCF7 breast; 2.5 µM in the experiment with MOLT-4 leukemia; 3.34 µM in the experiment on NCI-H226 lung. Further, the GI50 with PC-3 prostate was 2.96 µM; with RPMI-8226 leukemia, 2.22 µM; in the experiment on SF-295 CNS it was 4.61 µM; in the experiment on TK-10 renal, 4.06 µM. For the same compound, the TGI in the experiment with BT-549 breast is 18.6 µM; in the experiment on CAKI-1 renal it was 15.5 µM; in the experiment with M14 melanoma, 4.1 µM; with MCF7 breast it was 3.9 µM; in the experiment with MOLT-4 leukemia it was 6.01 µM; with NCI-H226 lung, 14.1 µM. The TGI with PC-3 prostate was determined as 11.4 µM; in the experiment with RPMI-8226 leukemia it was 5.16 µM; in the experiment on SF-295 CNS, 17.5 µM; in the experiment with TK-10 renal it was 14.3 µM.

For `O=C1/C(=C\c2ccc(F)cc2)CN(C(=O)c2ccccc2)C/C1=C\c1ccc(F)cc1`, the GI50 in the experiment with BT-549 breast was 1.81 µM; in the experiment with CAKI-1 renal it was 2.82 µM; in the experiment on M14 melanoma, 2.05 µM; with MCF7 breast it was 0.841 µM; in the experiment on MOLT-4 leukemia, 2.56 µM; in the experiment with NCI-H226 lung, 26.6 µM. The GI50 in the experiment on PC-3 prostate was 2.08 µM; in the experiment on RPMI-8226 leukemia, 0.296 µM; in the experiment with TK-10 renal, 4.21 µM. Also, the TGI is 3.43 µM in the experiment with BT-549 breast; 66.2 µM in the experiment with CAKI-1 renal; 4.65 µM with M14 melanoma; 4.31 µM in the experiment with MCF7 breast; 72.5 µM in the experiment on MOLT-4 leukemia; greater than 100 µM with NCI-H226 lung. For the same compound, the TGI with PC-3 prostate turned out to be 6.59 µM; with RPMI-8226 leukemia, 1.17 µM; with TK-10 renal, 17.3 µM.

As for `CC[C@H]1CN2CCc3cc(OC)c(OC)cc3C2C[C@@H]1CC1NCCc2cc(OC)c(OC)cc21` (stereo partly drawn), the TGI was found to be 0.375 µM in the experiment with BT-549 breast; 0.292 µM in the experiment on CAKI-1 renal; 0.0487 µM with M14 melanoma; 1.22 µM in the experiment on MCF7 breast; 3.75 µM in the experiment on MOLT-4 leukemia; 0.194 µM in the experiment on NCI-H226 lung. Also, the results for the TGI in the experiment with PC-3 prostate, in the experiment with RPMI-8226 leukemia and with TK-10 renal were 0.275 µM, 0.128 µM and 0.572 µM, respectively. In addition, in the experiment with MCF7 breast, the GI50 was 0.0146 µM.
